Test results from ChEMBL document CHEMBL3045657, “Synthesis and biological evaluation of naphthalene, furan and pyrrole based chalcones as cytotoxic and antimicrobial agents” (2012).
In brackets after ≈: the same amount, converted by molar mass. Activity calls are given as the source filed them. The calls are words filed in the database; no cut-off is given here.

Experiments:
Type in all cases: functional
[1] = tested on: HEp-2; assay: Cytotoxicity against Homo sapiens (human) Hep2 cells assessed as cell growth inhibition at 1 x 10^-5 M after 48 hr by SRB assay; conditions: for inhibition of growth at 10 µM: HEp-2, 48 h, read-out: GI
[2] = tested on: Staphylococcus aureus; assay: Antibacterial activity against Staphylococcus aureus MTCC 96 after 24 hr by serial tube dilution method; conditions: MTCC 96, 24 h
[3] = tested on: Pseudomonas aeruginosa; assay: Antibacterial activity against Pseudomonas aeruginosa MTCC 2642 after 24 hr by serial tube dilution method; conditions: MTCC 2642, 24 h
[4] = tested on: IMR-32; assay: Cytotoxicity against Homo sapiens (human) IMR32 cells assessed as cell growth inhibition at 1 x 10^-5 M after 48 hr by SRB assay; conditions: for inhibition of growth at 10 µM: IMR-32, 48 h, read-out: GI
[5] = tested on: Salmonella typhi; assay: Antibacterial activity against Salmonella enterica subsp. enterica serovar Typhi MTCC 1251 after 24 hr by serial tube dilution method; conditions: MTCC 1251, 24 h
[6] = tested on: Bacillus subtilis; assay: Antibacterial activity against Bacillus subtilis MTCC 2451 after 24 hr by serial tube dilution method; conditions: MTCC 2451, 24 h
[7] = tested on: PC-3; assay: Cytotoxicity against Homo sapiens (human) PC3 cells assessed as cell growth inhibition at 1 x 10^-5 M after 48 hr by SRB assay; conditions: for inhibition of growth at 10 µM: PC-3, 48 h, read-out: GI
[8] = tested on: Aspergillus niger; assay: Antifungal activity against Aspergillus niger MTCC 1344 after 48 hr by serial tube dilution method; conditions: MTCC 1344, 48 h
[9] = tested on: OVCAR; assay: Cytotoxicity against Homo sapiens (human) OVCAR cells assessed as cell growth inhibition at 1 x 10^-5 M after 48 hr by SRB assay; conditions: for inhibition of growth at 10 µM: read-out: GI
[10] = tested on: Escherichia coli; assay: Antibacterial activity against Escherichia coli MTCC 82 after 24 hr by serial tube dilution method; conditions: MTCC 82, 24 h
[11] = tested on: Candida albicans; assay: Antifungal activity against Candida albicans MTCC 3018 after 48 hr by serial tube dilution method; conditions: MTCC 3018, 48 h

SMILES: O=C(/C=C/c1ccc2c(c1)OCO2)c1ccco1
- inhibition of growth at 10 µM [1]: 13%
- MIC [2]: 62.5 µg/mL (≈ 258 µM)
- MIC [3]: 125 µg/mL (≈ 516 µM)
- inhibition of growth at 10 µM [4]: 16%
- MIC [5]: 125 µg/mL (≈ 516 µM)
- MIC [6]: 31.2 µg/mL (≈ 129 µM)
- inhibition of growth at 10 µM [7]: 21%
- MIC [8]: 500 µg/mL (≈ 2060 µM)
- inhibition of growth at 10 µM [9]: 11%
- MIC [10]: 125 µg/mL (≈ 516 µM)

SMILES: O=C(/C=C/c1cccc(Cl)c1Cl)c1ccc2ccccc2c1
- MIC [11]: 250 µg/mL (≈ 764 µM)
- inhibition of growth at 10 µM [1]: 9%
- MIC [2]: 31.2 µg/mL (≈ 95.4 µM)
- MIC [3]: 62.5 µg/mL (≈ 191 µM)
- growth inhibition (GI) [4]: inactive
- MIC [5]: 62.5 µg/mL (≈ 191 µM)
- MIC [6]: 31.2 µg/mL (≈ 95.4 µM)
- growth inhibition (GI) [7]: inactive
- MIC [8]: 250 µg/mL (≈ 764 µM)
- inhibition of growth at 10 µM [9]: 11%
- MIC [10]: 31.2 µg/mL (≈ 95.4 µM)

SMILES: O=C(/C=C/c1ccc2ccccc2c1)c1ccc2ccccc2c1
- inhibition of growth at 10 µM [1]: 73%
- MIC [2]: 62.5 µg/mL (≈ 203 µM)
- MIC [3]: 250 µg/mL (≈ 811 µM)
- inhibition of growth at 10 µM [4]: 77%
- MIC [6]: 125 µg/mL (≈ 405 µM)
- inhibition of growth at 10 µM [7]: 79%
- inhibition of growth at 10 µM [9]: 76%
- MIC [10]: 125 µg/mL (≈ 405 µM)

SMILES: O=C(/C=C/c1ccccc1)c1ccco1
- growth inhibition (GI) [1]: inactive
- MIC [2]: 250 µg/mL (≈ 1260 µM)
- inhibition of growth at 10 µM [4]: 13%
- MIC [6]: 250 µg/mL (≈ 1260 µM)
- inhibition of growth at 10 µM [7]: 19%
- growth inhibition (GI) [9]: inactive

SMILES: O=C(/C=C/c1ccc2c(c1)OCO2)c1ccc2ccccc2c1
- inhibition of growth at 10 µM [1]: 42%
- MIC [2]: 62.5 µg/mL (≈ 207 µM)
- MIC [3]: 250 µg/mL (≈ 827 µM)
- inhibition of growth at 10 µM [4]: 39%
- MIC [5]: 125 µg/mL (≈ 413 µM)
- MIC [6]: 125 µg/mL (≈ 413 µM)
- inhibition of growth at 10 µM [7]: 42%
- inhibition of growth at 10 µM [9]: 46%
- MIC [10]: 125 µg/mL (≈ 413 µM)

SMILES: CC1(C)S[C@@H]2[C@H](NC(=O)[C@H](N)c3ccc(O)cc3)C(=O)N2[C@H]1C(=O)O [AMOXICILLIN]
- MIC [2]: 0.2 µg/mL (≈ 0.547 µM)
- MIC [3]: 0.3 µg/mL (≈ 0.821 µM)
- MIC [5]: 0.2 µg/mL (≈ 0.547 µM)
- MIC [6]: 0.2 µg/mL (≈ 0.547 µM)
- MIC [10]: 0.25 µg/mL (≈ 0.684 µM)

SMILES: COc1ccc(/C=C/C(=O)c2ccc3ccccc3c2)c(OC)c1OC
- MIC [11]: 125 µg/mL (≈ 359 µM)
- inhibition of growth at 10 µM [1]: 72%
- MIC [2]: 3.9 µg/mL (≈ 11.2 µM)
- MIC [3]: 7.8 µg/mL (≈ 22.4 µM)
- inhibition of growth at 10 µM [4]: 75%
- MIC [5]: 15.6 µg/mL (≈ 44.8 µM)
- MIC [6]: 3.9 µg/mL (≈ 11.2 µM)
- inhibition of growth at 10 µM [7]: 81%
- MIC [8]: 62.5 µg/mL (≈ 179 µM)
- inhibition of growth at 10 µM [9]: 88%
- MIC [10]: 15.6 µg/mL (≈ 44.8 µM)

SMILES: O=C(/C=C/c1ccc([N+](=O)[O-])cc1)c1ccc[nH]1
- inhibition of growth at 10 µM [1]: 13%
- MIC [2]: 250 µg/mL (≈ 1030 µM)
- inhibition of growth at 10 µM [4]: 11%
- inhibition of growth at 10 µM [7]: 11%
- inhibition of growth at 10 µM [9]: 14%
- MIC [10]: 500 µg/mL (≈ 2060 µM)

SMILES: O=C(/C=C/c1cccc([N+](=O)[O-])c1)c1ccc2ccccc2c1
- inhibition of growth at 10 µM [1]: 17%
- MIC [2]: 125 µg/mL (≈ 412 µM)
- inhibition of growth at 10 µM [4]: 11%
- inhibition of growth at 10 µM [7]: 16%
- inhibition of growth at 10 µM [9]: 13%
- MIC [10]: 250 µg/mL (≈ 824 µM)

SMILES: O=C(/C=C/c1ccc(Cl)cc1Cl)c1ccc[nH]1
- MIC [11]: 125 µg/mL (≈ 470 µM)
- inhibition of growth at 10 µM [1]: 16%
- MIC [2]: 7.8 µg/mL (≈ 29.3 µM)
- MIC [3]: 31.2 µg/mL (≈ 117 µM)
- growth inhibition (GI) [4]: inactive
- MIC [5]: 15.6 µg/mL (≈ 58.6 µM)
- MIC [6]: 15.6 µg/mL (≈ 58.6 µM)
- growth inhibition (GI) [7]: inactive
- MIC [8]: 62.5 µg/mL (≈ 235 µM)
- inhibition of growth at 10 µM [9]: 13%
- MIC [10]: 15.6 µg/mL (≈ 58.6 µM)

SMILES: O=C(/C=C/c1cccc(Br)c1)c1ccc2ccccc2c1
- growth inhibition (GI) [1]: inactive
- MIC [2]: 125 µg/mL (≈ 371 µM)
- MIC [3]: 250 µg/mL (≈ 741 µM)
- inhibition of growth at 10 µM [4]: 11%
- MIC [5]: 125 µg/mL (≈ 371 µM)
- MIC [6]: 125 µg/mL (≈ 371 µM)
- growth inhibition (GI) [7]: inactive
- inhibition of growth at 10 µM [9]: 14%
- MIC [10]: 250 µg/mL (≈ 741 µM)

SMILES: O=C(/C=C/c1cccc([N+](=O)[O-])c1)c1ccco1
- inhibition of growth at 10 µM [1]: 16%
- MIC [2]: 125 µg/mL (≈ 514 µM)
- MIC [3]: 125 µg/mL (≈ 514 µM)
- growth inhibition (GI) [4]: inactive
- MIC [6]: 125 µg/mL (≈ 514 µM)
- growth inhibition (GI) [7]: inactive
- inhibition of growth at 10 µM [9]: 13%
- MIC [10]: 125 µg/mL (≈ 514 µM)

SMILES: O=C(/C=C/c1cccc([N+](=O)[O-])c1)c1ccc[nH]1
- inhibition of growth at 10 µM [1]: 17%
- MIC [2]: 125 µg/mL (≈ 516 µM)
- inhibition of growth at 10 µM [4]: 14%
- MIC [5]: 500 µg/mL (≈ 2060 µM)
- MIC [6]: 250 µg/mL (≈ 1030 µM)
- inhibition of growth at 10 µM [7]: 13%
- MIC [8]: 500 µg/mL (≈ 2060 µM)
- growth inhibition (GI) [9]: inactive
- MIC [10]: 250 µg/mL (≈ 1030 µM)

SMILES: COc1ccc(/C=C/C(=O)c2ccc3ccccc3c2)cc1O
- inhibition of growth at 10 µM [1]: 57%
- MIC [2]: 15.6 µg/mL (≈ 51.3 µM)
- MIC [3]: 250 µg/mL (≈ 821 µM)
- inhibition of growth at 10 µM [4]: 61%
- MIC [5]: 125 µg/mL (≈ 411 µM)
- MIC [6]: 31.2 µg/mL (≈ 103 µM)
- inhibition of growth at 10 µM [7]: 47%
- inhibition of growth at 10 µM [9]: 52%
- MIC [10]: 62.5 µg/mL (≈ 205 µM)

SMILES: O=C(/C=C/c1ccccc1)c1ccc2ccccc2c1
- inhibition of growth at 10 µM [1]: 27%
- MIC [2]: 250 µg/mL (≈ 968 µM)
- MIC [3]: 500 µg/mL (≈ 1940 µM)
- inhibition of growth at 10 µM [4]: 19%
- inhibition of growth at 10 µM [7]: 28%
- inhibition of growth at 10 µM [9]: 21%
- MIC [10]: 500 µg/mL (≈ 1940 µM)
